In patent US11717578B2, “Undecylenic acid-based nanocarriers for targeted drug delivery” (University of Cincinnati, priority 2017, dated 2023):

Test system: Reactive Oxygen Species (ROS)
Assay: DPBF assay of photodynamic and sonodynamic ROS generation
Conditions: complexed with mPEG-UA nanocarrier vesicles
From the text: Photodynamic Reactive Oxygen Species (ROS) were generated by irradiation of red/green/blue (RGB) LEDs at 8 mW/cm^2 and detected by the 1,3-diphenylisobenzofuran (DPBF) assay. A photoreactive iron complex (Fe3[diCl-Sal-AHA]3OCH3 Na) from the Baldwin Lab (UC Chemistry) was employed as the photosensitizer and complexed with the mPEG-UA nanocarrier vesicles.

Row | Substance | sonodynamic ROS generation (sonication at 1.0 MHz, 3 W/cm^2) | photodynamic ROS generation (RGB LEDs at 8 mW/cm^2)
1 | sodium copper chlorophyllin | Sonodynamic ROS were generated | –
2 | Fe3[diCl-Sal-AHA]3OCH3 Na | – | photodynamic ROS are generated
